According to patent publication EP4768471A1, “SIX-MEMBERED AND FIVE-MEMBERED FUSED RING DERIVATIVE, AND PREPARATION METHOD THEREFOR AND USE THEREOF” (Guangdong Hengqin Novagains Biopharmaceutical Co., Ltd., priority 2023, dated 2025):
Read-outs that look alike come from different tables or passages of the source. Blank lines part the entries; values can stand above or below the compound they belong to.

Key:
[1] = target: T1, human urate transporter 1 (hURAT1) (Homo sapiens, UniProt Q96S37); test: Inhibitory activity against urate transporter URAT1 (14C-uric acid uptake in Flp-In-T-REx-293-hURAT1 cells); type: cell-based
T1 construct: host or cells: Flp-In-T-REx-293 (HEK293-derived), doxycycline-induced
T1 sequence (Q96S37 1-553): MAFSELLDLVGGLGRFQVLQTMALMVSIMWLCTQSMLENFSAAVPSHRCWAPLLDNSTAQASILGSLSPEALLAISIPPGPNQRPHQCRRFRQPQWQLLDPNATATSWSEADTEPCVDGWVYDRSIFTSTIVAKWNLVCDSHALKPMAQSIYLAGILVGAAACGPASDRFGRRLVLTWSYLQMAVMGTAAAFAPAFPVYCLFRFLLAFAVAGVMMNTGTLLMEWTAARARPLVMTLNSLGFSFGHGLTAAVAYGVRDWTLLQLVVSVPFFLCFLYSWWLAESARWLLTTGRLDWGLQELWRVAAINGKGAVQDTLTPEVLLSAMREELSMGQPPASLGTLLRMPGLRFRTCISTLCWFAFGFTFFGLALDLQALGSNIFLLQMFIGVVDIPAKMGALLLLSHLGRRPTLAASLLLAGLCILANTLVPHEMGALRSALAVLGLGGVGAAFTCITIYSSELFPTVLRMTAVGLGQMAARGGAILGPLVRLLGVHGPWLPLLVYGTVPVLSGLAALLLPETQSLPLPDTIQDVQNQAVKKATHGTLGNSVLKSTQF
Protocol: Inhibitory activity of each compound against urate transporter URAT1 was tested. Compounds: the compounds of the present disclosure were prepared according to the methods in examples; Verinurad was purchased commercially; and CDER167 was prepared according to the method described in the literature (doi: 10.1038/s41401-021-00640-5). Cells: Flp-In-T-REx-293-hURAT1 cells capable of expressing human urate transporter 1 (hURAT1), were purchased from Pharmaron Beijing Co., Ltd., China or can be generated (e.g., by transfecting hURAT1 genes into commercially available Flp-In-T-REx-293 cells according to the method described in the literature doi: 10.1124/dmd.106.012187, and the expression of the hURAT1 genes can be verified by methods such as Western blotting). [drawing 76] The Flp-In-T-REx-293-hURAT1 cells were cultured in a Dulbecco's Modified Eagle Medium (DMEM) in 75 cm^2 flasks under 5% CO2 and 37°C, and passaged every two days. […] The cells were resuspended in the DMEM and then counted, and subsequently prepared into a cell suspension with a proper density. The cells were seeded into a 96-well plate and cultured in a 37°C and 5% CO2 incubator for 24 h. The culture medium was removed, and DMEM containing 200 ng/mL doxycycline was added. The cells were then placed back into the 37°C and 5% CO2 incubator and cultured for 18 h. The test compounds were serially diluted 3-fold in DMSO starting from 10 mmol/L to prepare 10 stock solutions at varying concentrations. A buffer solution was prepared, which contained 125 mmol/L sodium gluconate, 4.8 mmol/L potassium gluconate, 5.6 mmol/L glucose, 1.2 mmol/L potassium dihydrogen phosphate, 1.2 mmol/L magnesium sulfate, 1.3 mmol/L calcium gluconate and 25 mmol/L HEPES (pH = 7.4). 1.2 µL of each test compound stock solution was mixed with 119 µL of buffer to form an assay buffer. After induction for 16 h, the culture medium was removed, and the cells were washed with a prewarmed buffer and incubated for 10 min at 37°C. The buffer was then removed, and an assay buffer containing 50 µmol/L ^14C-uric acid and the test compound was added to the cells, and then the cells were incubated at 37°C for 5 min. The buffer was removed, the cells were washed three times with a precool buffer. Subsequently, 100 mmol/L NaOH was added to lyse the cells for 20 min. The lysate was transferred to a 96-well plate, and then 200 µL of UltimaGold XR scintillation cocktail was added, and radioactivity was measured using a MicroBeta^2 (PerkinElmer). The half-maximal inhibitory concentration (IC50) of each test compound was calculated via GraphPad Prism 8 software using a nonlinear regression fitting equation. The IC50 values were categorized by the following grades: […] Table 2 Inhibitory activity (IC50) of some compounds in the present disclosure against urate transporter

ICR mice = test: Toxicity test: 28-day repeated administration in mice, histopathological examination of liver and kidney; conditions: intragastric gavage 200 mg/kg once daily for 28 consecutive days, 8 mice per group
Protocol: The toxicity of each compound was evaluated following 28-day repeated administration in mice.
Method: ICR mice that passed quarantine were selected, with equal numbers of males and females. The mice were randomly grouped based on body weight and sex, with 8 mice per group. The test compounds included the compounds of the present disclosure and a positive drug Verinurad. The test compounds were administered to the animals via intragastric gavage at a dosage of 200 mg/kg, once daily for 28 consecutive days. Detailed clinical observations were performed after each administration, with at least 2 h observation following the first administration or upon detection of abnormalities. In addition, cage-side observations were conducted once daily in the afternoon. Observations included clinical signs (animal appearance, behavior, diet, response to stimuli, secretions and excretions) and mortality (time of death or time of discovery of death, pre-mortem signs, etc.). In addition, the symptoms of animals, and the onset, severity, and duration of any observed clinical symptoms of animals were recorded. On Day 28 of administration, the mice were euthanized immediately after blood collection was completed and subjected to necropsy. Livers and left kidneys were collected for paraffin embedding, sectioning and hematoxylin-eosin (HE) staining, followed by histopathological examination to observe tissue lesions. Special attention was paid to the degeneration and inflammatory changes in glomeruli and renal tubules, as well as the presence of urea crystals. The animals euthanized due to found moribund or the animals dead during the experiment were subjected to necropsy promptly.

[2] = Flp-In-T-REx-293-hURAT1 cells, 50 µmol/L 14C-uric acid, 5 min at 37°C, read-out: IC50

IC50 [1, 2]: > 1000 nM
SMILES: CC(C)(Sc1ccncc1Cc1ccc(C#N)c2ccccc12)C(=O)O [CDER167, reference compound]

SMILES: CC(C)(Sc1ccccc1Cn1cc(C#N)c2ccccc21)C(=O)O [Compound F-02]
IC50 [1]: 100 to 500 nM | hepatic or renal toxicity upon histopathological examination (ICR mice): no hepatic or renal toxicity

SMILES: CC(C)(Sc1ccccc1Cn1cc(C#N)c2cnccc21)C(=O)O [Compound F-05]
IC50 [1, 2]: < 100 nM | hepatic or renal toxicity upon histopathological examination (ICR mice): no hepatic or renal toxicity

SMILES: CC(C)(Sc1ccccc1Cn1cc(C#N)c2cccnc21)C(=O)O [Compound F-07]
IC50 [1]: < 100 nM | hepatic or renal toxicity upon histopathological examination (ICR mice): no hepatic or renal toxicity

SMILES: CC(C)(Sc1ccccc1Cn1cc(C#N)c2cncnc21)C(=O)O [Compound F-08]
IC50 [1, 2]: 100 to 500 nM | hepatic or renal toxicity upon histopathological examination (ICR mice): no hepatic or renal toxicity

SMILES: CC(C)(Sc1ccc(F)cc1Cn1cc(C#N)c2ccccc21)C(=O)O [Compound F-09]
IC50 [1]: 100 to 500 nM | hepatic or renal toxicity upon histopathological examination (ICR mice): no hepatic or renal toxicity

SMILES: CC(C)(Sc1ccc(Cl)cc1Cn1cc(C#N)c2ccccc21)C(=O)O [Compound F-10]
IC50 [1, 2]: 100 to 500 nM | hepatic or renal toxicity upon histopathological examination (ICR mice): no hepatic or renal toxicity

SMILES: CC(C)(Sc1ccc(Br)cc1Cn1cc(C#N)c2ccccc21)C(=O)O [Compound F-11]
IC50 [1, 2]: 100 to 500 nM | hepatic or renal toxicity upon histopathological examination (ICR mice): no hepatic or renal toxicity

SMILES: Cc1ccc(SC(C)(C)C(=O)O)c(Cn2cc(C#N)c3ccccc32)c1 [Compound F-12]
IC50 [1]: 100 to 500 nM | hepatic or renal toxicity upon histopathological examination (ICR mice): no hepatic or renal toxicity

SMILES: COc1ccc(SC(C)(C)C(=O)O)c(Cn2cc(C#N)c3ccccc32)c1 [Compound F-13]
IC50 [1, 2]: 100 to 500 nM | hepatic or renal toxicity upon histopathological examination (ICR mice): no hepatic or renal toxicity

SMILES: CC(C)(Sc1ccccc1Cn1cc(C#N)c2c(F)cccc21)C(=O)O [Compound F-14]
IC50 [1]: 100 to 500 nM | hepatic or renal toxicity upon histopathological examination (ICR mice): no hepatic or renal toxicity

SMILES: CC(C)(Sc1ccccc1Cn1cc(C#N)c2ccc(F)cc21)C(=O)O [Compound F-16]
IC50 [1]: 100 to 500 nM | hepatic or renal toxicity upon histopathological examination (ICR mice): no hepatic or renal toxicity

SMILES: CC(C)(Sc1ccccc1Cn1cc(C#N)c2cccc(F)c21)C(=O)O [Compound F-17]
IC50 [1]: 100 to 500 nM | hepatic or renal toxicity upon histopathological examination (ICR mice): no hepatic or renal toxicity

SMILES: N#Cc1cn(Cc2ccccc2SC2(C(=O)O)CCC2)c2ncccc12 [Compound F-20]
IC50 [1]: 100 to 500 nM | hepatic or renal toxicity upon histopathological examination (ICR mice): no hepatic or renal toxicity

SMILES: N#Cc1cn(Cc2cc(F)ccc2SC2(C(=O)O)CCC2)c2ncccc12 [Compound F-26]
IC50 [1]: 100 to 500 nM | hepatic or renal toxicity upon histopathological examination (ICR mice): no hepatic or renal toxicity

SMILES: N#Cc1cn(Cc2cc(Cl)ccc2SC2(C(=O)O)CCC2)c2ncccc12 [Compound F-27]
IC50 [1, 2]: 100 to 500 nM | hepatic or renal toxicity upon histopathological examination (ICR mice): no hepatic or renal toxicity

SMILES: N#Cc1cn(Cc2cc(Br)ccc2SC2(C(=O)O)CCC2)c2ncccc12 [Compound F-28]
IC50 [1, 2]: 100 to 500 nM | hepatic or renal toxicity upon histopathological examination (ICR mice): no hepatic or renal toxicity

SMILES: COc1ccc(SC2(C(=O)O)CCC2)c(Cn2cc(C#N)c3cccnc32)c1 [Compound F-30]
IC50 [1, 2]: 100 to 500 nM | hepatic or renal toxicity upon histopathological examination (ICR mice): no hepatic or renal toxicity

SMILES: CC(C)(Sc1ccncc1-c1ccc(C#N)c2ccccc12)C(=O)O [Verinurad, reference compound]
IC50 [1, 2]: 500 to 1000 nM | renal toxicity (number of mice affected) (ICR mice): 3 out of 8 | renal toxicity (percentage of mice affected) (ICR mice): 37.5%
